Data: patent publication US4017639A, “2-Hydroxy-3-nitro-1,4-naphthoquinones for the prophylaxis of certain allergies” (Beecham Group Limited, priority 1974, dated 1977)

Tested on: PCA response
Experiment: rat Passive Cutaneous Anaphylaxis Test (PCA test)
Format: in vivo, rat (male Wistar)
Conditions: sc, subcutaneous, as sodium salt
Description: All of the compounds of the formula (I) prepared in the preceding examples were tested in the rat Passive Cutaneous Anaphylaxis Test (PCA test) described below. They were administered as their sodium salts either in pH 7.2 phosphate buffer (for soluble salts) or as a suspension in 1% methyl cellulose (for insoluble salts).
Male Wistar rats of 250-300 g were injected intraperitoneally with 0.5 ml. of Bordatella pertussis vaccine (containing 4 × 10^10 dead organism per ml) and subcutaneously with 0.5 ml. of an emulsion of 100 mg of ovalbumin in 2 ml. of saline and 3 ml. of incomplete Freunds' adjuvant. Rats were bled by cardiac puncture on day 18, the blood was pooled and separated and serum stored at -20° and thawed only once before use.
0.1 ml. of each of six twofold serial dilutions of the serum in 0.9% saline were injected intradermally into separate sites on the shaved dorsal surface of 250-350 g. Male Wister rats. 72 hours later the animals were challenged by i.v. injection of 0.3 ml. of 1% ovalbumin mixed with 0.1 ml. of a 5% solution of pontamine sky blue dye both in isotonic saline buffered with pH 7.2 Sorenson buffer (P.B.S.). The rats were killed after 20 minutes and the diameter of the blue wheals at the antibody injection sites were measured. The starting dilution of the serum was adjusted so that there was no response, after challenge, at the site of injection of the highest dilution and a maximum response at the two or three lowest dilutions.
Amounts of the compounds were administered to rats by subcutaneous injection, into the nucal region, of a solution of the compound in P.B.S. or as a suspension in 1% methyl cellulose, each amount to a test group of six animals at a specified time prior to intravenous challenge with ovalbumin.
For those compounds having insoluble sodium salts, the salts were isolated by reaction of the free nitro compound with 2.5N sodium hydroxide and the filtered sodium salt washed free of alkali with water. The dried salts were then administered as a suspension in 1% methyl cellulose.

[1] = 10 min, time 10 mins before challenge
[2] = 0.5 h, time 30 mins before challenge

Question: Which results are given for `O=C1C(O)=C([N+](=O)[O-])C(=O)c2ccc(F)cc21` [Example 11, 6-Fluoro-3-hydroxy-2-nitro-1,4-naphthoquinone]?
Answer: inhibition in vivo at 100 mg/kg [1]: 13%; inhibition in vivo at 100 mg/kg [2]: 16%

Question: Which inhibition in vivo at 5 mg/kg [1] does the source give for `COc1ccc2c(c1)C(=O)C(O)=C([N+](=O)[O-])C2=O` [Example 5, 3-Hydroxy-6-methoxy-2-nitro-1,4-naphthoquinone] here?
Answer: The inhibition in vivo at 5 mg/kg was 22%.

Question: What about the inhibition in vivo at 10 mg/kg [1] of the same compound?
Answer: The inhibition in vivo at 10 mg/kg was 41%.

Question: What about the inhibition in vivo at 20 mg/kg [1] of the same compound?
Answer: The inhibition in vivo at 20 mg/kg was 65%.

Question: And the inhibition in vivo at 40 mg/kg [1]?
Answer: The inhibition in vivo at 40 mg/kg was 85%.

Question: For `O=C1C(O)=C([N+](=O)[O-])C(=O)c2ccccc21` [Example 1, 2-Hydroxy-3-nitro-1,4naphthoquinone], which inhibition in vivo at 25 mg/kg [2] is on record?
Answer: The inhibition in vivo at 25 mg/kg was 16%.

Question: And the inhibition in vivo at 100 mg/kg [2]?
Answer: The inhibition in vivo at 100 mg/kg was 30%.

Question: For `O=C1C(O)=C([N+](=O)[O-])C(=O)c2ccc(Br)cc21` [Example 10, 6-Bromo-3-hydroxy-2-nitro-1.4-naphthoquinone], which inhibition in vivo at 100 mg/kg [1] is on record?
Answer: The inhibition in vivo at 100 mg/kg was 5%.

Question: What about the inhibition in vivo at 100 mg/kg [2] of the same compound?
Answer: Its inhibition in vivo at 100 mg/kg is 13%.

Question: What does the source list for `Cc1ccc2c(c1)C(=O)C(O)=C([N+](=O)[O-])C2=O` [Example 6, 3-Hydroxy-6-methyl-2-nitro-1,4-naphthoquinone]?
Answer: inhibition in vivo at 5 mg/kg [1]: 19%; inhibition in vivo at 10 mg/kg [1]: 36%; inhibition in vivo at 20 mg/kg [1]: 33%; inhibition in vivo at 40 mg/kg [1]: 52%

Question: Which inhibition in vivo at 10 mg/kg [1] does the source give for `O=C1C(O)=C([N+](=O)[O-])C(=O)c2ccc(-c3ccccc3)cc21` [Example 14, 2-Hydroxy-3-nitro-7-phenyl-1,4-naphthoquinone] here?
Answer: The inhibition in vivo at 10 mg/kg was 20%.

Question: And the inhibition in vivo at 20 mg/kg [1]?
Answer: The inhibition in vivo at 20 mg/kg was 12%.

Question: What about the inhibition in vivo at 40 mg/kg [1] of the same compound?
Answer: The inhibition in vivo at 40 mg/kg was 23%.

Question: What about the inhibition in vivo at 80 mg/kg (10 min, dose 80 mg/Kg, time 10 mins before challenge) of the same compound?
Answer: The inhibition in vivo at 80 mg/kg was 23%.

Question: How did the inhibition in vivo at 1 mg/kg [1] turn out when `CCc1cc2c(cc1CC)C(=O)C([N+](=O)[O-])=C(O)C2=O` [Example 12, 6,7-Diethyl-2-hydroxy-3-nitro-1,4-naphthoquinone] was run?
Answer: The inhibition in vivo at 1 mg/kg was 11%.

Question: And the inhibition in vivo at 2 mg/kg [1]?
Answer: Its inhibition in vivo at 2 mg/kg is 23%.

Question: What about the inhibition in vivo at 4 mg/kg [1] of the same compound?
Answer: Its inhibition in vivo at 4 mg/kg is 26%.

Question: And the inhibition in vivo at 8 mg/kg (10 min, dose 8 mg/Kg, time 10 mins before challenge)?
Answer: Its inhibition in vivo at 8 mg/kg is 55%.

Question: Which inhibition in vivo at 25 mg/kg [2] does the source give for `Cc1ccc2c(c1)C(=O)C([N+](=O)[O-])=C(O)C2=O` [Example 2, 2-Hydroxy-6-methyl-3-nitro-1,4-naphthoquinone] here?
Answer: Its inhibition in vivo at 25 mg/kg is 33%.

Question: And the inhibition in vivo at 100 mg/kg [2]?
Answer: Its inhibition in vivo at 100 mg/kg is 30%.

Question: `Cc1cccc2c1C(=O)C(O)=C([N+](=O)[O-])C2=O` [Example 4, 3-Hydroxy-5-methyl-2-nitro-1,4-naphthoquinone] was tested. Which inhibition in vivo at 0.5 mg/kg (10 min, dose 0.5 mg/Kg, time 10 mins before challenge) did it give?
Answer: Its inhibition in vivo at 0.5 mg/kg is 6%.

Question: And the inhibition in vivo at 1 mg/kg [1]?
Answer: The inhibition in vivo at 1 mg/kg was 16%.

Question: And the inhibition in vivo at 2 mg/kg [1]?
Answer: Its inhibition in vivo at 2 mg/kg is 16%.

Question: And the inhibition in vivo at 4 mg/kg [1]?
Answer: The inhibition in vivo at 4 mg/kg was 29%.

Question: For `CCOc1ccc2c(c1)C(=O)C(O)=C([N+](=O)[O-])C2=O` [Example 8, 6-Ethoxy-3-hydroxy-2-nitro-1,4-naphthoquinone], which inhibition in vivo at 5 mg/kg [1] is on record?
Answer: The inhibition in vivo at 5 mg/kg was 25%.

Question: And the inhibition in vivo at 10 mg/kg [1]?
Answer: Its inhibition in vivo at 10 mg/kg is 28%.

Question: What about the inhibition in vivo at 20 mg/kg [1] of the same compound?
Answer: The inhibition in vivo at 20 mg/kg was 54%.

Question: What about the inhibition in vivo at 40 mg/kg [1] of the same compound?
Answer: The inhibition in vivo at 40 mg/kg was 79%.

Question: How did the inhibition in vivo at 25 mg/kg [2] turn out when `O=C1C([N+](=O)[O-])=C(O)C(=O)c2c(O)cccc21` [Example 3, 3,5-Dihydroxy-2-nitro-1,4-naphthoquinone] was run?
Answer: The inhibition in vivo at 25 mg/kg was 14%.

Question: What about the inhibition in vivo at 72 mg/kg (0.5 h, dose 72 mg/Kg, time 30 mins before challenge) of the same compound?
Answer: The inhibition in vivo at 72 mg/kg was 18%.

Question: Which inhibition in vivo at 5 mg/kg [1] does the source give for `COc1cc2c(cc1OC)C(=O)C([N+](=O)[O-])=C(O)C2=O` [Example 9, 6.7-Dimethoxy-2-hydroxy-3-nitro-1,4-naphthoquinone] here?
Answer: The inhibition in vivo at 5 mg/kg was 28%.

Question: And the inhibition in vivo at 10 mg/kg [1]?
Answer: Its inhibition in vivo at 10 mg/kg is 39%.

Question: What about the inhibition in vivo at 20 mg/kg [1] of the same compound?
Answer: The inhibition in vivo at 20 mg/kg was 75%.

Question: And the inhibition in vivo at 40 mg/kg [1]?
Answer: Its inhibition in vivo at 40 mg/kg is 84%.

Question: For `O=C1C(O)=C([N+](=O)[O-])C(=O)c2cc3c(cc21)CCCC3` [Example 13, 2-Hydroxy-3-nitro-6,7-tetramethylene-1,4-naphtoquinone], which inhibition in vivo at 5 mg/kg [1] is on record?
Answer: Its inhibition in vivo at 5 mg/kg is 72%.

Question: What about the inhibition in vivo at 10 mg/kg [1] of the same compound?
Answer: The inhibition in vivo at 10 mg/kg was 80%.

Question: And the inhibition in vivo at 20 mg/kg [1]?
Answer: The inhibition in vivo at 20 mg/kg was 87%.

Question: And the inhibition in vivo at 40 mg/kg [1]?
Answer: The inhibition in vivo at 40 mg/kg was 90%.

Question: What does the source list for `Cc1cc2c(cc1C)C(=O)C([N+](=O)[O-])=C(O)C2=O` [Example 7, 6,7-Dimethyl-2-hydroxy-3-nitro-1,4-naphthoquinone]?
Answer: inhibition in vivo at 25 mg/kg [2]: 18%; inhibition in vivo at 100 mg/kg [2]: 27%
